Source: patent publication US20050004167A1, “Branched chain amino acid-dependent aminotransferase inhibitors and their use in the treatment of neurodegenerative diseases” (WARNER-LAMBERT COMPANY LLC, priority 2001, published 2005)

| SMILES | melting point |
| --- | --- |
| COc1c(C(=O)NNS(=O)(=O)c2ccc(F)cc2)oc2c(OC)cccc12 (hydrate or solvate) [Example 63, 2-Benzofurancarboxylic acid, 3,7-dimethoxy-, 2-[(4-fluorophenyl)sulfonyl]-hydrazide] | 190.9 to 191.1 °C |
| O=C(NNS(=O)(=O)c1cccc(Cl)c1)c1cnc2ccccc2c1 (hydrate or solvate) [Example 131, 3-Quinolinecarboxylic acid, 2-[(3-chlorophenyl)sulfonyl]hydrazide] | 249.5 to 250.4 °C |
| COc1ccc2oc(C(=O)NNS(=O)(=O)c3ccccc3)c(OC(C)C)c2c1 (hydrate or solvate) [Example 57, 2-Benzofurancarboxylic acid, 5-methoxy-3-(1-methylethoxy), 2-(phenylsulfonyl)-hydrazide] | 127 to 129 °C |
| O=C(NNS(=O)(=O)c1ccccc1)c1cccc2cccnc12 (hydrate or solvate) [Example 21, Quinoline-8-carboxylic acid 2-(phenylsulfonyl)hydrazide] | 173 to 175 °C |
| Nc1ccccc1S(=O)(=O)NNC(=O)c1ccc2oc3ccccc3c2c1 [Example 166, 2-Dibenzofurancarboxylic acid, 2-[(2-aminophenyl)sulfonyl]hydrazide] | 217.9 to 218.4 °C |
| Cc1cccc(S(=O)(=O)NNC(=O)c2cnc3ccccc3c2)c1 (hydrate or solvate) [Example 129, 3-Quinolinecarboxylic acid, 2-[(3-methylphenyl)sulfonyl]hydrazide] | 238.6 to 239.4 °C |
| Cc1ccc2oc(C(=O)NNS(=O)(=O)c3ccccc3)cc2c1 (hydrate or solvate) [Example 77, Benzofurancarboxylic acid, 5-methyl-, 2-(phenylsulfonyl)hydrazide] | 183.3 to 183.6 °C |
| COc1c(C(=O)NNS(=O)(=O)c2cccc(C)c2)oc2c(OC)cccc12 (hydrate or solvate) [Example 64, 2-Benzofurancarboxylic acid, 3,7-dimethoxy-, 2-[(3-methylphenyl)sulfonyl]-hydrazide] | 179.4 to 180.9 °C |
| Cc1cccc(S(=O)(=O)NNC(=O)c2cc3cc(C)ccc3o2)c1 (hydrate or solvate) [Example 80, 2-Benzofurancarboxylic acid, 5-methyl-, 2-([3-methylphenyl)sulfonyl]hydrazide] | 184.1 to 186 °C |
| COc1c(C(=O)NNS(=O)(=O)c2ccccc2)oc2c(OC)cccc12 (hydrate or solvate) [Example 61, 2-Benzofurancarboxylic acid, 3,7-dimethoxy-, 2-(phenylsulfonyl)hydrazide] | 177.9 to 179.6 °C |
| COc1c(C(=O)NNS(=O)(=O)c2ccccc2)oc2c(-c3ccccc3)cccc12 (hydrate or solvate) [Example 67, 2-Benzofurancarboxylic acid, 3-methoxy-7-phenyl-, 2-(phenylsulfonyl)hydrazide] | 186.7 to 187.3 °C |
| Cc1c(C(=O)NNS(=O)(=O)c2ccccc2)oc2ccc(Cl)cc12 (hydrate or solvate) [Example 90, 2-Benzofurancarboxylic acid, 5-chloro-3-methyl, 2-(phenylsulfonyl)hydrazide] | 246.8 to 247.8 °C |
| O=C(NNS(=O)(=O)c1ccccc1)c1ccc2c(c1)OCO2 (hydrate or solvate) [Example 10, Benzo[1,3]dioxole-5-carboxylic acid 2-(phenylsulfonyl)hydrazide] | 156 to 158 °C |
| Cc1c(C(=O)NNS(=O)(=O)c2ccccc2)oc2ccccc12 (hydrate or solvate) [Example 88, 2-Benzofurancarboxylic acid, 3-methyl-, 2-(phenylsulfonyl)hydrazide] | 221.6 to 222.2 °C |
| Cc1cccc2cc(C(=O)NNS(=O)(=O)c3ccccc3)oc12 (hydrate or solvate) [Example 86, 2-Benzofurancarboxylic acid, 7-methyl-, 2-(phenylsulfonyl)hydrazide] | 217.5 to 218 °C |
| Cc1ccc2oc(C(=O)NNS(=O)(=O)c3ccccc3)c(C)c2c1 (hydrate or solvate) [Example 89, 2-Benzofurancarboxylic acid, 3,5-dimethyl-, 2-(phenylsulfonyl)hydrazide] | 225.9 to 227.1 °C |
| Cc1cccc(S(=O)(=O)NNC(=O)c2ccc3ncccc3c2)c1 (hydrate or solvate) [Example 128, 6-Quinolinecarboxylic acid, 2-[(3-methylphenyl)sulfonyl]hydrazide] | 234 to 234.6 °C |
| O=C(NNS(=O)(=O)c1ccccc1)c1cc2cc(Cl)ccc2[nH]1 [Example 171, 2-Indolecarboxylic acid, 5-chloro-2-phenylsulfonyl hydrazide] | 79.1 to 79.9 °C |
| O=C(NNS(=O)(=O)c1ccccc1)c1cc2cccc(Cl)c2o1 [Example 148, 7-Chloro-benzofuran-2-carboxylic acid 2-(phenylsulfonyl)hydrazide] | 223 to 224 °C |
| O=C(NNS(=O)(=O)c1cccc(Cl)c1)c1ccc2ncccc2c1 (hydrate or solvate) [Example 130, 6-Quinolinecarboxylic acid, 2-[(3-chlorophenyl)sulfonyl]hydrazide] | 238.4 to 239.1 °C |
| O=C(NNS(=O)(=O)c1ccccc1)c1cc2cc([N+](=O)[O-])ccc2o1 (hydrate or solvate) [Example 34, 2-Benzofurancarboxylic acid, 5-nitro-, 2-(phenylsulfonyl)hydrazide] | 207.7 to 208.1 °C |
| CN(C)c1ccc2oc(C(=O)NNS(=O)(=O)c3ccccc3)cc2c1.Cl | 218.3 to 218.9 °C |

More lines, now with the values ahead:

| melting point | SMILES |
| --- | --- |
| 190.6 to 192.3 °C | COc1c(C(=O)NNS(=O)(=O)c2ccccc2C(F)(F)F)oc2c(OC)cccc12 (hydrate or solvate) [Example 62, 2-Benzofurancarboxylic acid, 3,7-dimethoxy-, 2-[(2-trifluoromethylphenyl)-sulfonyl]hydrazide] |
| 94.7 to 95.5 °C | CC(C)Nc1ccc2oc(C(=O)NNS(=O)(=O)c3ccccc3)cc2c1 [Example 164, 2-Benzofurancarboxylic acid, 5-(N-isopropylamino)-, 2-(phenylsulfonyl)hydrazide] |
| 169 to 169.8 °C | CCCCCc1ccc(S(=O)(=O)Nc2ccc3oc(C(=O)NNS(=O)(=O)c4ccccc4)cc3c2)cc1 [Example 163, 2-Benzofurancarboxylic acid, 5-(4-pentylphenylsulfonylamino)-, 2-(phenylsulfonyl)hydrazide] |
| 186.1 to 186.3 °C | Cc1ccc2oc(C(=O)NNS(=O)(=O)c3cccc(Cl)c3)cc2c1 (hydrate or solvate) [Example 84, 2-Benzofurancarboxylic acid, 5-methyl-, 2-[(3-chlorophenyl)sulfonyl]hydrazide] |
| 241.6 to 242.3 °C | O=C(NNS(=O)(=O)c1cc(Cl)cc(Cl)c1)c1ccc2ncccc2c1 (hydrate or solvate) [Example 138, 6-Quinolinecarboxylic acid, 2-[(3,5-dichlorophenyl)sulfonyl]hydrazide] |
| 239.3 to 239.9 °C | O=C(NNS(=O)(=O)c1ccc([N+](=O)[O-])cc1)c1ccc2oc3ccccc3c2c1 [Example 159, 2-Dibenzofurancarboxylic acid, 2-(4-nitrophenyl)sulfonyl hydrazide] |
| 207.2 to 209.9 °C | Cc1ccc2oc(C(=O)NNS(=O)(=O)c3cccc(Br)c3)cc2c1 (hydrate or solvate) [Example 83, 2-Benzofurancarboxylic acid, 5-methyl-, 2-[3-(bromophenyl)sulfonyl]hydrazide] |
| 268.2 to 269.1 °C | O=C(NNS(=O)(=O)c1ccccc1)c1cc2cc([N+](=O)[O-])ccc2[nH]1 [Example 170, 2-Indolecarboxylic acid, 5-nitro-2-phenylsulfonyl hydrazide] |
| 241.3 to 241.9 °C | O=C(NNS(=O)(=O)c1cc(Cl)cc(Cl)c1)c1cnc2ccccc2c1 (hydrate or solvate) [Example 139, 3-Quinolinecarboxylic acid, 2-[(3,5-dichlorophenyl)sulfonyl]hydrazide] |
| 247.8 to 248.4 °C | O=C(NNS(=O)(=O)c1cccc(F)c1)c1cnc2ccccc2c1 (hydrate or solvate) [Example 133, 3-Quinolinecarboxylic acid, 2-[(3-fluorophenyl)sulfonyl]hydrazide] |
| 160.4 to 161.1 °C | CCCc1ccc(S(=O)(=O)Nc2ccc3oc(C(=O)NNS(=O)(=O)c4ccccc4)cc3c2)cc1 [Example 165, 2-Benzofurancarboxylic acid, 5-(4-propyllphenylsulfonylamino)-, 2-(phenylsulfonyl)hydrazide] |
| 230.6 to 231 °C | COc1cc(OC)c2cc(C(=O)NNS(=O)(=O)c3ccccc3)oc2c1 (hydrate or solvate) [Example 60, 2-Benzofurancarboxylic acid, 4,6-dimethoxy-, 2-(phenylsulfonyl)hydrazide] |
| 213 to 214 °C | COc1ccc(S(=O)(=O)Nc2ccc3oc(C(=O)NNS(=O)(=O)c4ccccc4)cc3c2)cc1 [Example 160, 2-Benzofurancarboxylic acid, 5-(4-methoxyphenylsulfonylamino)-, 2-(phenylsulfonyl)hydrazide] |
| 217 to 218 °C | Cc1cccc2oc(C(=O)NNS(=O)(=O)c3ccccc3)cc12 (hydrate or solvate) [Example 87, 2-Benzofurancarboxylic acid, 4-methyl-, 2-(phenylsulfonyl)hydrazide] |
| 242.2 to 244.2 °C | COc1c(C(=O)NNS(=O)(=O)c2ccccc2)oc2ccc(Cl)cc12 (hydrate or solvate) [Example 78, 2-Benzofurancarboxylic acid, 5-chloro-3-methoxy, 2-(phenylsulfonyl)hydrazide] |
| 251.6 to 252.7 °C | CN(C)c1ccc2[nH]c(C(=O)NNS(=O)(=O)c3ccccc3)cc2c1.Cl |
| 181 to 183 °C | Cc1ccc(S(=O)(=O)Nc2ccc3oc(C(=O)NNS(=O)(=O)c4ccccc4)cc3c2)cc1 [Example 161, 2-Benzofurancarboxylic acid, 5-(4-methylphenylsulfonylamino)-, 2-(phenylsulfonyl)hydrazide] |
| 211 to 214 °C | O=C(NNS(=O)(=O)c1ccccc1)c1ccc2ncccc2c1 (hydrate or solvate) [Example 13, Quinoline-6-carboxylic acid 2-(phenylsulfonyl)hydrazide] |
